According to the NIST ThermoML archive (doi:10.1021/acs.jced.8b00931):
Numbers after ± are expanded uncertainties.

Columns and labels:
[1] = Crystal; DSC
[2] = Molar enthalpy of transition or fusion; details: Crystal; DSC

SMILES: Nc1cc([N+](=O)[O-])ccc1Cl [2-chloro-5-nitroaniline]
- Triple point temperature [1]: 393.39 ± 1.2 K
- Molar enthalpy of transition or fusion [2]: 27 ± 0.97 kJ/mol
